# Measurements published in patent US9416125B2, “Substituted cycloalkenopyrazoles as BUB1 inhibitors for the treatment of cancer” (BAYER PHARMA AKTIENGESELLSCHAFT, priority 2012, dated 2016).
# pIC50: −log10 of the molar value.
# Experiments:
# [1] = molecular target: T1, catalytic domain of human Bub1 (amino acids 704-1085) (Homo sapiens, UniProt O43683); test: Bub1 kinase assay (TR-FRET); format: biochemical; details: 10 μM ATP, 1 μM peptide substrate, median, read-out: Biological Assay 1: Bub1 kinase assay median IC50
# T1 construct: catalytic domain of human Bub1 (amino acids 704-1085); His6 (N); made in house; host or cells: Hi5 insect cells
# T1 sequence (O43683 704-1085): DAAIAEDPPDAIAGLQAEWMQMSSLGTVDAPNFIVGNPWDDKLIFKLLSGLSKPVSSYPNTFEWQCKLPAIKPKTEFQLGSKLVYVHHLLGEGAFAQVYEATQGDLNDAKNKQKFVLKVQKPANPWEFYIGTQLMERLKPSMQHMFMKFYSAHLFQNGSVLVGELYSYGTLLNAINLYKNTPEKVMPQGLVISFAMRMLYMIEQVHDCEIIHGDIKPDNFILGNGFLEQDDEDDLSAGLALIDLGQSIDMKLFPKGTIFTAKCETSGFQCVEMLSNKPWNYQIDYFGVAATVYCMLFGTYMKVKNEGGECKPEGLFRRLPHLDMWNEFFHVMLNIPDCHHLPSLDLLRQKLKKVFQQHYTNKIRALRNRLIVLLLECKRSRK
# Description: Bub1-inhibitory activities of compounds described in the present invention were quantified using a time-resolved fluorescence energy transfer (TR-FRET) kinase assay which measures phosphorylation of the synthetic peptide Biotin-Ahx-VLLPKKSFAEPG (C-terminus in amide form), purchased from e.g. Biosyntan (Berlin, Germany) by the (recombinant) catalytic domain of human Bub1 (amino acids 704-1085), expressed in Hi5 insect cells with an N-terminal His6-tag and purified by affinity- (Ni-NTA) and size exclusion chromatography.
# In a typical assay 11 different concentrations of each compound (0.1 nM, 0.33 nM, 1.1 nM, 3.8 nM, 13 nM, 44 nM, 0.15 μM, 0.51 μM, 1.7 μM, 5.9 μM and 20 μM) were tested in duplicate within the same microtiter plate. To this end, 100-fold concentrated compound solutions (in DMSO) were previously prepared by serial dilution (1:3.4) of 2 mM stocks in a clear low volume 384-well source microtiter plate (Greiner Bio-One, Frickenhausen, Germany), from which 50 nL of compounds were transferred into a black low volume test microtiter plate from the same supplier. Subsequently, 2 μL of Bub1 (the final concentration of Bub1 was adjusted depending on the activity of the enzyme lot in order to be within the linear dynamic range of the assay: typically ˜200 ng/mL were used) in aqueous assay buffer [50 mM Tris/HCl pH 7.5, 10 mM magnesium chloride (MgCl2), 200 mM potassium chloride (KCl), 1.0 mM dithiothreitol (DTT), 0.1 mM sodium ortho-vanadate, 1% (v/v) glycerol, 0.01% (w/v) bovine serum albumine (BSA), 0.005% (v/v) Trition X-100 (Sigma), 1× Complete EDTA-free protease inhibitor mixture (Roche)] were added to the compounds in the test plate and the mixture was incubated for 15 min at 22° C. to allow pre-equilibration of the putative enzyme-inhibitor complexes before the start of the kinase reaction, which was initiated by the addition of 3 μL 1.67-fold concentrated solution (in assay buffer) of adenosine-tri-phosphate (ATP, 10 μM final concentration) and peptide substrate (1 μM final concentration). The resulting mixture (5 μL final volume) was incubated at 22° C. during 60 min, and the reaction was stopped by the addition of 5 μL of an aqueous EDTA-solution (50 mM EDTA, in 100 mM HEPES pH 7.5 and 0.2% (w/v) bovine serum albumin) which also contained the TR-FRET detection reagents (0.2 μM streptavidin-XL665 [Cisbio Bioassays, Codolet, France] and 1 nM anti-phosho-Serine antibody [Merck Millipore, cat. #35-001] and 0.4 nM LANCE EU-W1024 labeled anti-mouse IgG antibody [Perkin-Elmer, product no. AD0077, alternatively a Terbium-cryptate-labeled anti-mouse IgG antibody from Cisbio Bioassays can be used]). The stopped reaction mixture was further incubated 1 h at 22° C. in order to allow the formation of complexes between peptides and detection reagents. Subsequently, the amount of product was evaluated by measurement of the resonance energy transfer from the Eu-chelate-antibody complex recognizing the Phosphoserine residue to the streptavidin-XL665 bound to the biotin moiety of the peptide. To this end, the fluorescence emissions at 620 nm and 665 nm after excitation at 330-350 nm were measured in GTR-FRET plate reader, e.g. a Rubystar or Pherastar (both from BMG Labtechnologies, Offenburg, Germany) or a Viewlux (Perkin-Elmer) and the ratio of the emissions (665 nm/622 nm) was taken as indicator for the amount of phosphorylated substrate. The data were normalised using two sets of (typically 32-) control wells for high- (=enzyme reaction without inhibitor=0%=Minimum inhibition) and low- (=all assay components without enzyme=100%=Maximum inhibition) Bub1 activity. IC50 values were calculated by fitting the normalized inhibition data to a 4-parameter logistic equation (Minimum, Maximum, IC50, Hill; Y=Max+(Min−Max)/(1+(X/IC50)Hill)).
# HeLa cell line = test: Proliferation assay (crystal violet staining); format: cell-based; details: Homo sapiens, 96 h, 4 days incubation, range 0.001-10 μM, median, read-out: Biological Assay 2: Proliferation assay (HeLa cell line) median IC50
# Protocol: Cultivated tumor cells (cells were ordered from ATCC, except HeLa-MaTu and HeLa-MaTu-ADR, which were ordered from EPO-GmbH, Berlin) were plated at a density of 1000 to 5000 cells/well, depending on the growth rate of the respective cell line, in a 96-well multititer plate in 200 μL of their respective growth medium supplemented 10% fetal calf serum. After 24 h, the cells of one plate (zero-point plate) were stained with crystal violet (see below), while the medium of the other plates was replaced by fresh culture medium (200 μL), to which the test substances were added in various concentrations (0 μM, as well as in the range of 0.001-10 μM; the final concentration of the solvent DMSO was 0.5%). The cells were incubated for 4 days in the presence of test substances. Cell proliferation was determined by staining the cells with crystal violet: the cells were fixed by adding 20 μL/measuring point of an 11% glutaric aldehyde solution for 15 min at rt. After three washing cycles of the fixed cells with water, the plates were dried at rt. The cells were stained by adding 100 μL/measuring point of a 0.1% crystal violet solution (pH 3.0). After three washing cycles of the stained cells with water, the plates were dried at rt. The dye was dissolved by adding 100 μL/measuring point of a 10% acetic acid solution. Absorbtion was determined by photometry at a wavelength of 595 nm. The change of cell number, in percent, was calculated by normalization of the measured values to the aborbtion values of the zero-point plate (=0%) and the absorbtion of the untreated (0 μm) cells (=100%). The IC50 values were determined by means of a 4 parameter fit.
SMILES,pIC50 [1],pIC50 (HeLa cell line)
"CCOc1cc(F)c(Cn2nc(-c3ncc(OC)c(Nc4ccncc4)n3)c3c2CCC3)c(F)c1 [Example 2-1-1, 2-[1-(4-ethoxy-2,6-difluorobenzyl)-1,4,5,6-tetrahydrocyclopenta-[c]pyrazol-3-yl]-5-methoxy-N-(pyridin-4-yl)pyrimidin-4-amine]",8.30,5.22
"COc1cnc(-c2nn(Cc3ccccc3F)c3c2CCCC3)nc1Nc1ccncc1 [Example 2-1-2, 2-[1-(2-fluoro-benzyl)-4,5,6,7-tetrahydro-1H-indazol-3-yl]-5-methoxy-N-(pyridin-4-yl)pyrimidin-4-amine]",8.00,≤ 5.00
"COc1ccc(Cn2nc(-c3ncc(OC)c(Nc4ccncc4)n3)c3c2CCC3)cc1 [Example 2-1-3, 5-methoxy-2-[1-(4-methoxy-benzyl)-1,4,5,6-tetrahydrocyclopenta [c]pyrazol-3-yl]-N-(pyridin-4-yl)pyrimidin-4-amine]",7.30,≤ 5.00
"COc1c(N)nc(-c2nn(Cc3ccccc3F)c3c2CCC3)nc1Nc1ccncc1 [Example 2-1-4, 2-[1-(2-fluoro-benzyl)-1,4,5,6-tetrahydrocyclopenta [c]pyrazol-3-yl]-5-methoxy-N-(pyridin-4-yl)pyrimidin-4,6-diamine]",7.05,≤ 5.00
"Nc1nc(-c2nn(Cc3ccccc3F)c3c2CCC3)nc(Nc2ccncc2)c1N1CCOCC1 [Example 2-1-5, 2-[1-(2-fluoro-benzyl)-1,4,5,6-tetrahydrocyclopenta [c]pyrazol-3-yl]-5-(morpholin-4-yl)-N-(pyridin-4-yl)pyrimidin-4,6-diamine]",7.00,
"COc1cnc(-c2nn(Cc3ccccc3F)c3c2CCC3)nc1Nc1ccncc1 [Example 2-1-6, 2-[1-(2-fluoro-benzyl)-1,4,5,6-tetrahydrocyclopenta [c]pyrazol-3-yl]-5-methoxy-N-(pyridin-4-yl)pyrimidin-4-amine]",7.00,≤ 5.00
"COc1cnc(-c2nn(Cc3ccccc3F)c3c2CCC3)nc1Nc1ccncc1C#N [Example 2-1-7, 4-({2-[1-(2-fluoro-benzyl)-1,4,5,6-tetrahydrocyclopenta [c]pyrazol-3-yl]-5-methoxy-pyrimidin-4-yl}amino) nicotinonitrile]",6.70,≤ 5.00
"Fc1ccccc1Cn1nc(-c2nc(Nc3ccncc3)c(N3CCOCC3)c(Nc3ccncc3)n2)c2c1CCC2 [Example 2-1-8, 2-[1-(2-fluoro-benzyl)-1,4,5,6-tetrahydrocyclopenta[c]pyrazol-3-yl]-5-(morpholin-4-yl)-N,N′-di(pyridin-4-yl)pyrimidin-4,6-diamine]",5.52,
"COCC(=O)Nc1nc(-c2nn(Cc3ccccc3F)c3c2CCC3)nc(Nc2ccncc2)c1OC [Example 2-1-10, N-{2-[1-(2-fluorobenzyl)-1,4,5,6-tetrahydrocyclopenta[c]pyrazol-3-yl]-5-methoxy-6-(pyridin-4-ylamino)pyrimidin-4-yl}-2-methoxyacetamide]",6.52,≤ 5.00
"COc1c(NC(C)=O)nc(-c2nn(Cc3ccccc3F)c3c2CCC3)nc1Nc1ccncc1 [Example 2-1-11, N-{2-[1-(2-fluoro-benzyl)-1,4,5,6-tetrahydrocyclopenta [c]pyrazol-3-yl]-5-methoxy-6-(pyridin-4-ylamino)pyrimidin-4-yl}acetamide]",6.92,

# Continued, values first:
pIC50 [1],pIC50 (HeLa cell line),SMILES
6.70,≤ 5.00,"NC(=O)c1cnccc1Nc1nc(-c2nn(Cc3ccccc3F)c3c2CCC3)ncc1O [Example 2-1-12, 4-({2-[1-(2-fluoro-benzyl)-1,4,5,6-tetrahydrocyclopenta [c]pyrazol-3-yl]-5-hydroxy-pyrimidin-4-yl}amino) nicotinamide]"
6.52,≤ 5.00,"Oc1cnc(-c2nn(Cc3ccccc3F)c3c2CCC3)nc1Nc1ccncc1 [Example 2-1-13, 2-[1-(2-fluoro-benzyl)-1,4,5,6-tetrahydrocyclopenta [c]pyrazol-3-yl]-4-(pyridin-4-ylamino) pyrimidin-5-ol]"
7.70,≤ 5.00,"CCOc1cc(F)c(Cn2nc(-c3ncc(O)c(Nc4ccncc4)n3)c3c2CCC3)c(F)c1 [Example 2-2-1, 2-[1-(4-ethoxy-2,6-difluorobenzyl)-1,4,5,6-tetrahydrocyclopenta-[c]pyrazol-3-yl]-4-(pyridin-4-ylamino)pyrimidin-5-ol]"
7.15,5.22,"N#Cc1cnccc1Nc1nc(-c2nn(Cc3ccccc3F)c3c2CCC3)ncc1O [Example 2-2-2, 4-({2-[1-(2-fluoro-benzyl)-1,4,5,6-tetrahydrocyclopenta [c]pyrazol-3-yl]-5-hydroxy-pyrimidin-4-yl}amino) nicotinonitrile]"
7.00,,"CCOc1cc(F)c(Cn2nc(-c3ncc(OCCO[Si](C)(C)C(C)(C)C)c(Nc4ccncc4)n3)c3c2CCC3)c(F)c1 [Example 2-3-6, 5-(2-{[tert-butyl (dimethyl)silyl]oxy}ethoxy)-2-[1-(4-ethoxy-2,6-difluoro-benzyl)-1,4,5,6-tetrahydrocyclopenta [c]pyrazol-3-yl]-N-(pyridin-4-yl)pyrimidin-4-amine]"
7.70,,"CSCCOc1cnc(-c2nn(Cc3ccccc3F)c3c2CCC3)nc1Nc1ccncc1C(N)=O [Example 2-3-8, 4-({2-[1-(2-fluoro-benzyl)-1,4,5,6-tetrahydrocyclopenta [c]pyrazol-3-yl]-5-[2-(methyl-sulfanyl)ethoxy]pyrimidin-4-yl}amino) nicotinamide]"
6.30,,"CCOC(=O)c1cnccc1Nc1nc(-c2nn(Cc3ccccc3F)c3c2CCC3)ncc1Oc1ccncc1C(=O)OCC [Example 2-9-1, ethyl 4-[(4-{[3-(ethoxycarbonyl)pyridin-4-yl]amino}-2-[1-(2-fluorobenzyl)-1,4,5,6-tetrahydrocyclopenta[c]pyrazol-3-yl]pyrimidin-5-yl)oxy]nicotinate]"
5.22,,"COCC(=O)N(c1ccncc1)c1nc(-c2nn(Cc3ccccc3F)c3c2CCC3)nc(N)c1OC [Example 2-12-1, N-{6-amino-2-[1-(2-fluorobenzyl)-1,4,5,6-tetrahydrocyclopenta[c]-pyrazol-3-yl]-5-methoxypyrimidin-4-yl}-2-methoxy-N-(pyridin-4-yl)acetamide]"
